Assay results reported in patent publication US7517874B2 (priority 2007, dated 2009).
Read-outs that look alike come from different tables or passages of the source.

Assays:
[1] = target: human CB1 receptor (hCB1) (Homo sapiens, UniProt P21554); experiment: cell-based; type: cell-based
Summary of the method: (§1)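 First, cells in IBMX-containing HEPES-buffered HBSS are raised to elevated cAMP with 2-8 μM NKH-477 for 30 min. Data are normalised to the forskolin and forskolin + 1 μM CP55,940 controls.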

rat CB2 receptor (rCB2) = target: T1, rat CB2 receptor (rCB2) (Rattus norvegicus, UniProt Q9QZN9); experiment: cell-based; type: cell-based; conditions: for +/− RCB2: agonist or inverse agonist at rCB2
T1 sequence (Q9QZN9 1-360): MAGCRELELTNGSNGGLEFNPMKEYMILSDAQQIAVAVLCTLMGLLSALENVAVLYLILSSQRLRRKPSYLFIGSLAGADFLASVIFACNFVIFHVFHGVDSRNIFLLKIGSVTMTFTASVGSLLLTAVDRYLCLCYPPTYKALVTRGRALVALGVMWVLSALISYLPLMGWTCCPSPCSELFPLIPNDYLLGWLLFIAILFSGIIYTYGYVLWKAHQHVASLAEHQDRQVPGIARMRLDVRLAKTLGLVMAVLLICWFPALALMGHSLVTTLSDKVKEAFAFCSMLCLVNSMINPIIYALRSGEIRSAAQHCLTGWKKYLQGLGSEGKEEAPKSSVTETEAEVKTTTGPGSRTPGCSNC
Summary of the method: as §1

[2] = groups >100 nM-10 μM and >10 μM, cAMP, CHO-K1 hCB1, read-out: EC50 HCB1

Sequence of human CB1 receptor (hCB1) (P21554 whole entry): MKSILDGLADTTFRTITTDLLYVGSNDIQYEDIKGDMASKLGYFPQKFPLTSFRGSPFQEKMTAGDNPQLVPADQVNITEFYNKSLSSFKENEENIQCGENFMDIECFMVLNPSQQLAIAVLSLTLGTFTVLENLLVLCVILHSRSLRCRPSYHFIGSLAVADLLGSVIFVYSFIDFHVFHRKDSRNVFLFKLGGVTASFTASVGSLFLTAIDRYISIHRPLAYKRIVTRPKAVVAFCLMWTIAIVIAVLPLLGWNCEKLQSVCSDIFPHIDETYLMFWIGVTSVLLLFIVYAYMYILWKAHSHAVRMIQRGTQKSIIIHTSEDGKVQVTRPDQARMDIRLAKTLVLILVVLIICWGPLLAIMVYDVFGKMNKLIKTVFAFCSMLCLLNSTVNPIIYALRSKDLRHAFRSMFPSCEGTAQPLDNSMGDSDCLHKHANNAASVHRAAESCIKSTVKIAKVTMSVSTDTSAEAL

Row | Structure (SMILES) | EC50 [1, 2] | +/− RCB2 (rat CB2 receptor (rCB2)) | EC50 [1] | EC50 (rat CB2 receptor (rCB2))
1 | O=C(c1nc(-c2ccccc2)n2c1CN(S(=O)(=O)c1ccc(F)cc1)CC2)N1CCOCC1 [Compound 105, (7-(4-fluorophenylsulfonyl)-3-phenyl-5,6,7,8-tetrahydroimidazo[1,5-a]pyrazine-1-yl)(morpholino)methanone] | > 10000 nM | − |  | 
2 | CNC(=O)[C@@H](NC(=O)c1nc(-c2ccccc2)n2c1CN(S(=O)(=O)c1ccc(Cl)cc1)CC2)C(C)(C)C [Compound 106, (S)-7-(4-chlorophenylsulfonyl)-N-(3,3-dimethyl-1-(methylamino)-1-oxobutan-2-yl)-3-phenyl-5,6,7,8-tetrahydroimidazo[1,5-a]pyrazine-1-carboxamide] |  | − | > 10000 nM | 
3 | CNC(=O)[C@H](C)NC(=O)c1nc(-c2ccccc2)n2c1CN(S(=O)(=O)c1ccc(F)cc1)CC2 [Compound 110, (S)-7-(4-fluorophenylsulfonyl)-N-(1-(methylamino)-1-oxopropan-2-yl)-3-phenyl-5,6,7,8-tetrahydroimidazo[1,5-a]pyrazine-1-carboxamide] |  | + | > 10000 nM | 
4 | CCS(=O)(=O)N1CCn2c(-c3ccccc3)nc(C(=O)N[C@H](C)C3CCCCC3)c2C1 [Compound 111, (R)-N-(1-cyclohexylethyl)-7-(ethylsulfonyl)-3-phenyl-5,6,7,8-tetrahydroimidazo[1,5-a]pyrazine-1-carboxamide] |  |  | > 10000 nM | > 10 µM
5 | CCS(=O)(=O)N1CCn2c(-c3ccccc3)nc(C(=O)NC3C4(C)CCC(C4)C3(C)C)c2C1 (stereo not drawn) [Compound 112, 7-(ethylsulfonyl)-3-phenyl-N-(1,3,3-trimethylbicyclo[2.2.1]heptan-2-yl)-5,6,7,8-tetrahydroimidazo[1,5-a]pyrazine-1-carboxamide] |  | − | > 10000 nM | 
6 | CCS(=O)(=O)N1CCn2c(-c3ccccc3)nc(C(=O)N[C@@H](C)c3ccccc3)c2C1 [Compound 113, (S)-7-(ethylsulfonyl)-3-phenyl-N-(1-phenylethyl)-5,6,7,8-tetrahydroimidazo[1,5-a]pyrazine-1-carboxamide] |  | − | > 10000 nM | 
7 | CCS(=O)(=O)N1CCn2c(-c3ccccc3)nc(C(=O)Nc3ccccc3)c2C1 [Compound 114, 7-(ethylsulfonyl)-N,3-diphenyl-5,6,7,8-tetrahydroimidazo[1,5-a]pyrazine-1-carboxamide] | > 10000 nM | − |  | 
8 | CCS(=O)(=O)N1CCn2c(-c3ccccc3)nc(C(=O)NN3CCCCC3)c2C1 [Compound 115, 7-(ethylsulfonyl)-3-phenyl-N-(piperidin-1-yl)-5,6,7,8-tetrahydroimidazo[1,5-a]pyrazine-1-carboxamide] | > 10000 nM | − |  | 
9 | CCS(=O)(=O)N1CCn2c(-c3ccc(Cl)cc3)nc(C(=O)NCCC(C)C)c2C1 [Compound 116, 3-(4-chlorophenyl)-7-(ethylsulfonyl)-N-isopentyl-5,6,7,8-tetrahydroimidazo[1,5-a]pyrazine-1-carboxamide] |  | − | > 10000 nM | 
10 | CCS(=O)(=O)N1CCn2c(-c3ccccc3)nc(C(=O)NCC3CCOCC3)c2C1 [Compound 117, 7-(ethylsulfonyl)-3-phenyl-N-((tetrahydro-2H-pyran-4-yl)methyl)-5,6,7,8-tetrahydroimidazo[1,5-a]pyrazine-1-carboxamide] | > 10000 nM | − |  | 
11 | CCS(=O)(=O)N1CCn2c(-c3ccccc3)nc(C(=O)NC3CCCCC3)c2C1 [Compound 118, N-cyclohexyl-7-(ethylsulfonyl)-3-phenyl-5,6,7,8-tetrahydroimidazo[1,5-a]pyrazine-1-carboxamide] |  | − | > 10000 nM | 
12 | CC12CCC(C1)C(C)(C)C2NC(=O)c1nc(-c2ccccc2)n2c1CN(C(=O)C1CC1)CC2 (stereo not drawn) [Compound 119, 7-(cyclopropanecarbonyl)-3-phenyl-N-(1,3,3-trimethyl-bicyclo [2.2.1]heptan-2-yl)-5,6,7,8-tetrahydroimidazo[1,5-a]pyrazine-1-carboxamide] |  | − | > 10000 nM | 
13 | CC12CCC(C1)C(C)(C)C2NC(=O)c1nc(-c2ccccc2)n2c1CN(C(=O)c1ccccc1)CC2 (stereo not drawn) [Compound 120, 7-benzoyl-3-phenyl-N-(1,3,3-trimethylbicyclo[2.2.1]heptan-2-yl)-5,6,7,8-tetrahydroimidazo[1,5-a]pyrazine-1-carboxamide] |  | + | > 10000 nM | 
14 | CC12CCC(C1)C(C)(C)C2NC(=O)c1nc(-c2ccccc2)n2c1CN(C(=O)C1CCOC1)CC2 (stereo not drawn) [Compound 121, 3-phenyl-7-(tetrahydrofuran-3-carbonyl)-N-(1,3,3-trimethylbicyclo[2.2.1]heptan-2-yl)-5,6,7,8-tetrahydroimidazo[1,5-a]pyrazine-1-carboxamide] |  | − | > 10000 nM | 
15 | CC12CCC(C1)C(C)(C)C2NC(=O)c1nc(-c2ccccc2)n2c1CN(C(=O)c1ccco1)CC2 (stereo not drawn) [Compound 122, 7-(furan-2-carbonyl)-3-phenyl-N-(1,3,3-trimethylbicyclo[2.2.1]heptan-2-yl)-5,6,7,8-tetrahydroimidazo[1,5-a]pyrazine-1-carboxamide] | > 10000 nM | − |  | 
16 | CC(C)(C)C(=O)N1CCn2c(-c3ccccc3)nc(C(=O)NC3C4(C)CCC(C4)C3(C)C)c2C1 (stereo not drawn) [Compound 123, 3-phenyl-7-pivaloyl-N-(1,3,3-trimethylbicyclo[2.2.1]heptan-2-yl)-5,6,7,8-tetrahydroimidazo[1,5-a]pyrazine-1-carboxamide] |  | − | > 10000 nM | 
17 | C[C@H](NC(=O)c1nc(-c2ccccc2)n2c1CN(C(=O)C1CC1)CC2)c1ccccc1 [Compound 124, (S)-7-(cyclopropanecarbonyl)-3-phenyl-N-(1-phenylethyl)-5,6,7,8-tetrahydroimidazo[1,5-a]pyrazine-1-carboxamide] |  | − | > 10000 nM | 
18 | C[C@H](NC(=O)c1nc(-c2ccccc2)n2c1CN(C(=O)c1ccccc1)CC2)c1ccccc1 [Compound 125, (S)-7-benzoyl-3-phenyl-N-(1-phenylethyl)-5,6,7,8-tetrahydroimidazo[1,5-a]pyrazine-1-carboxamide] |  | − | > 10000 nM | 
19 | CNC(=O)[C@@H](NC(=O)c1nc(-c2ccccc2)n2c1CN(C(=O)C1CC1)CC2)C(C)(C)C [Compound 126, (S)-7-(cyclopropanecarbonyl)-N-(3,3-dimethyl-1-(methylamino)-1-oxobutan-2-yl)-3-phenyl-5,6,7,8-tetrahydroimidazo[1,5-a]pyrazine-1-carboxamide] |  | − | > 10000 nM | 
20 | CNC(=O)[C@@H](NC(=O)c1nc(-c2ccccc2)n2c1CN(C(=O)c1ccccc1)CC2)C(C)(C)C [Compound 127, (S)-7-benzoyl-N-(3,3-dimethyl-1-(methylamino)-1-oxobutan-2-yl)-3-phenyl-5,6,7,8-tetrahydroimidazo[1,5-a]pyrazine-1-carboxamide] |  |  | > 10000 nM | > 10 µM
21 | CNC(=O)[C@@H](NC(=O)c1nc(-c2ccccc2)n2c1CN(C(=O)c1ccco1)CC2)C(C)(C)C [Compound 128, (S)-N-(3,3-dimethyl-1-(methylamino)-1-oxobutan-2-yl)-7-(furan-2-carbonyl)-3-phenyl-5,6,7,8-tetrahydroimidazo[1,5-a]pyrazine-1-carboxamide] |  | − | > 10000 nM | 
22 | O=C(Nc1ccccc1)c1nc(-c2ccccc2)n2c1CN(C(=O)C1CC1)CC2 [Compound 129, 7-(cyclopropanecarbonyl)-N,3-diphenyl-5,6,7,8-tetrahydroimidazo[1,5-a]pyrazine-1-carboxamide] | > 10000 nM | − |  | 
23 | CC(C)CCNC(=O)c1nc(-c2ccc(Cl)cc2)n2c1CN(C(=O)c1ccccc1)CC2 [Compound 130, 7-benzoyl-3-(4-chlorophenyl)-N-isopentyl-5,6,7,8-tetrahydroimidazo[1,5-a]pyrazine-1-carboxamide] |  | − | > 10000 nM | 
24 | CC(C)CCNC(=O)c1nc(-c2ccc(Cl)cc2)n2c1CN(C(=O)C1CC1)CC2 [Compound 131, 3-(4-chlorophenyl)-7-(cyclopropanecarbonyl)-N-isopentyl-5,6,7,8-tetrahydroimidazo[1,5-a]pyrazine-1-carboxamide] |  | − | > 10000 nM | 
25 | C[C@@H](NC(=O)c1nc(-c2ccccc2)n2c1CN(C(=O)C1CC1)CC2)C1CCCCC1 [Compound 132, (R)-N-(1-cyclohexylethyl)-7-(cyclopropanecarbonyl)-3-phenyl-5,6,7,8-tetrahydroimidazo[1,5-a]pyrazine-1-carboxamide] |  | − | > 10000 nM | 
26 | C[C@@H](NC(=O)c1nc(-c2ccccc2)n2c1CN(C(=O)C(C)(C)C)CC2)C1CCCCC1 [Compound 133, (R)-N-(1-cyclohexylethyl)-3-phenyl-7-pivaloyl-5,6,7,8-tetrahydroimidazo[1,5-a]pyrazine-1-carboxamide] |  | − | > 10000 nM | 
27 | O=C(NCC1CCOCC1)c1nc(-c2ccccc2)n2c1CN(C(=O)C1CC1)CC2 [Compound 134, 7-(cyclopropanecarbonyl)-3-phenyl-N-((tetrahydro-2H-pyran-4-yl)methyl)-5,6,7,8-tetrahydroimidazo[1,5-a]pyrazine-1-carboxamide] | > 10000 nM | − |  | 
